This is an account of results in patent US20220009920A1 (GB005, Inc., priority 2020, published 2022).

One data set addresses T1, CLK3 (Homo sapiens, UniProt P49761).
T1 construct: AssayQuant Technologies, Inc. (service laboratory)
Briefly: Large panel kinase profiling. The format is biochemical. Conditions: 1 μM test article, 1 mM ATP. A digest of the protocol:
(§1)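 Kinase activity was followed with the PhosphoSens CSox-Sensor platform, testing compound at 1 μM in the presence of 1 mM ATP. Reactions ran at 30° C. and fluorescence (Ex 360 nm/Em 485 nm) was read kinetically every 1 min.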

In a further data set the target is ALK (Homo sapiens, UniProt Q9UM73). The data set can be described thus: Large panel kinase profiling. The settings on record: 1 μM test article, 1 mM ATP. The format is biochemical. An outline of the steps: as §1
Data set [1] is described as follows: Plasma and total brain concentrations at 1 h post single oral administration to male Wistar Han rats. The format is in vivo. The settings on record: rat, 10 mg/kg oral gavage; for Kp at 1 h: brain/plasma, read-out: brain to plasma ratio. The method, then: The appropriate amount of test article was dissolved 10% dimethylacetamide (DMA)/90% (20% hydroxypropyl-β-cyclodextrin (HP-B-CD) w/v in water to obtain a final concentration of 1 mg/mL for oral dosing. Sonication, vortex, and homogenization was used as needed. Three male Wistar Han rats aged 6-8 weeks (200-300 grams) were dosed by oral gavage 10 mg/kg solution of the test article.
At 1 h, blood and whole brains were collected. Blood was collected via cardiac puncture into tubes containing potassium EDTA and kept on ice until plasma collection. Plasma was obtained via centrifugation at 4000×g for five minutes at 4° C. Following exsanguination, animals were transcardially perfused with approximately 20 mL of saline, and brains were collected and immediately frozen. Plasma and brains were at −75±15° C. until analysis.
The desired serial concentrations of working solutions were achieved by diluting stock solution of analyte with 50% acetonitrile in water solution. 5 μL of working solutions (2, 5, 10, 50, 100, 500, 1000, 5000, 10000 ng/mL) were added to 50 μL of the male blank Wistar Han rats plasma, brain homogenate to achieve calibration standards of 0.2˜1000 ng/mL (0.2, 0.5, 1, 5, 10, 50, 100, 500, 1000 ng/mL) in a total volume of 55 μL. Four quality control samples at 0.5 ng/mL, 1 ng/mL, 50 ng/mL and 800 ng/mL for plasma, brain homogenate were prepared independently of those used for the calibration curves. These QC samples were prepared on the day of analysis in the same way as calibration standards.
55 μL of standards, 55 μL of QC samples and 55 μL of unknown samples (50 μL of plasma, brain homogenate with 5 μL of blank solution) were added to 200 μL of acetonitrile containing IS mixture for precipitating protein respectively. Then the samples were vortexed for 30 s. After centrifugation at 4° C., 4700 rpm for 15 min, the supernatant was diluted 3 times with water. 10 μL of diluted supernatant was injected into the LC/MS/MS system for quantitative analysis.

In a further data set the target is T2, BTK (Homo sapiens, UniProt Q06187).
T2 construct: purchased Cama
The data set can be described thus: Assay to determine activity against BTK. The format is biochemical. Conditions: 1 mM ATP, 2 nM BTK, 90 minutes at room temperature. A digest of the protocol: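 Recombinant BTK (2 nM) was assayed with 1.5 µM FL-peptide and 1 mM ATP in pH 7.5 HEPES buffer with MgCl2, DTT, BSA and EGTA, for 90 min at room temperature before an EDTA stop. Peptide conversion ratio was read by mobility-shift, and IC50 came from 11-point 3-fold dilution curves.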

The next data set relates to BTK in RAMOS B cells. Briefly: Assay to determine BTK activity in RAMOS B cells (anti-IgM, FLIPR Calcium 6). The format is cell-based. The settings on record: anti-IgM EC80, calcium readout.
A further data set concerns 288 kinases. The data set can be described thus: Large panel kinase profiling, overall selectivity. The format is biochemical. The settings on record: 1 μM test article, 1 mM ATP. How it is done: Large panel kinase profiling was performed at AssayQuant Technologies, Inc. 260 Cedar Hill Street, Marlborough, Mass. 01752 using the PhosphoSens® CSox-Sensor platform using 1 μM test article concentration and 1 mM ATP concentration (www.assayquant.com). Reactions were run in Corning, half-area 96-well, white flat round bottom polystyrene NBS microplates (Cat. #3642) after sealing using optically-clear adhesive film (TopSealA-Plus plate seal, PerkinElmer), applied with either a roller or a paddle to eliminate evaporation and resulting drift. The standard total reaction volume was 50 μL. All experiments were ran at 30° C. to control for fluctuations in ambient temperature. Plates were read from the top in kinetic mode (readings taken every 1 min), monitoring fluorescence intensity with filters using Ex 360 nm and Em 485 nm and a band width of 40 and 20 nm, respectively, and a gain of 80. Data analysis was performed using either Graphpad Prism or Gene Data Screener software.

The mark [2] stands for this setting: plasma, read-out: Mean [plasma].

Structures are written as SMILES. pIC50: −log10 of the molar value. Read-outs that look alike come from different tables or passages of the source.

Sequence of ALK (Q9UM73 19-1620): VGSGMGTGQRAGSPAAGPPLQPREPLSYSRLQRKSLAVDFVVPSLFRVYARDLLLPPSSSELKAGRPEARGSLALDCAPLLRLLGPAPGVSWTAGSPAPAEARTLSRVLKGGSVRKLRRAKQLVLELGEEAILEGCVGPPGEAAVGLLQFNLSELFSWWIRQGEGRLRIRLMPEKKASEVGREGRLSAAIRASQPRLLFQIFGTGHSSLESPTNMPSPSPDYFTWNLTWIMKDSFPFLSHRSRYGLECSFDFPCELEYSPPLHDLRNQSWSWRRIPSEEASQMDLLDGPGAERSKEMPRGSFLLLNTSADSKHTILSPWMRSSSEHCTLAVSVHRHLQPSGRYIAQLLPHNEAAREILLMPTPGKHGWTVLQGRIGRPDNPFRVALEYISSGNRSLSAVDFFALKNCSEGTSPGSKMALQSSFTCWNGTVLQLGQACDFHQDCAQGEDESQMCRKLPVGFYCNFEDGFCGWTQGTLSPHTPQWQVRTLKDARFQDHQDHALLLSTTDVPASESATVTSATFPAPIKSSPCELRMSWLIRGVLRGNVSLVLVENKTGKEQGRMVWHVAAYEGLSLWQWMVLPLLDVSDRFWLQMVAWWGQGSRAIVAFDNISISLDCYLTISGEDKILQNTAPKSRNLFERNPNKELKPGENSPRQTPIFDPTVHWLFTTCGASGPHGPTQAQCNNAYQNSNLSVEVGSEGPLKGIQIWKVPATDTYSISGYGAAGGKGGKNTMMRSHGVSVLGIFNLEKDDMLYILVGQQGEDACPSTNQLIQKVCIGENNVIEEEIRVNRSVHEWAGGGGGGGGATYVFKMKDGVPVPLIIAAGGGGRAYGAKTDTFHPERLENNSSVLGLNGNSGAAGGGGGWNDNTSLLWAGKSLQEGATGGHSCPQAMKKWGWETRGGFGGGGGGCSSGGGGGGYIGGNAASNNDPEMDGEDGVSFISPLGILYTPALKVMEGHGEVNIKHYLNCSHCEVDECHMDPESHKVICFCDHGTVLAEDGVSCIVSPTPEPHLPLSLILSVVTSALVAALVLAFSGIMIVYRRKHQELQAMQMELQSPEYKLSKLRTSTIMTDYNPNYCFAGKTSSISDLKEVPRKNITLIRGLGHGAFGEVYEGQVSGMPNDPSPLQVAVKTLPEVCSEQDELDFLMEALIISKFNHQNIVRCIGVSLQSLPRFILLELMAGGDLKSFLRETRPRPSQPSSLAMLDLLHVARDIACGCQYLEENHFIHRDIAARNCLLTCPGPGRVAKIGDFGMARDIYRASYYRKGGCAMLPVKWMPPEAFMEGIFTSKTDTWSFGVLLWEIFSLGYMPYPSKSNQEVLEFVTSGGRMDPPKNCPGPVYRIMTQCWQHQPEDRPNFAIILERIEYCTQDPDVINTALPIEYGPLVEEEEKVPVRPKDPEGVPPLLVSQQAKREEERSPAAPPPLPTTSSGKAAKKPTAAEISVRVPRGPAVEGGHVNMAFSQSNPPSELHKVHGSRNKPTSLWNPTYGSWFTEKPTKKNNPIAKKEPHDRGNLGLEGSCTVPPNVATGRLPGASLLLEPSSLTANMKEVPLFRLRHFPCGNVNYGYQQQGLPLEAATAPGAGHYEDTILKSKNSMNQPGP
T2 sequence (Q06187 whole entry): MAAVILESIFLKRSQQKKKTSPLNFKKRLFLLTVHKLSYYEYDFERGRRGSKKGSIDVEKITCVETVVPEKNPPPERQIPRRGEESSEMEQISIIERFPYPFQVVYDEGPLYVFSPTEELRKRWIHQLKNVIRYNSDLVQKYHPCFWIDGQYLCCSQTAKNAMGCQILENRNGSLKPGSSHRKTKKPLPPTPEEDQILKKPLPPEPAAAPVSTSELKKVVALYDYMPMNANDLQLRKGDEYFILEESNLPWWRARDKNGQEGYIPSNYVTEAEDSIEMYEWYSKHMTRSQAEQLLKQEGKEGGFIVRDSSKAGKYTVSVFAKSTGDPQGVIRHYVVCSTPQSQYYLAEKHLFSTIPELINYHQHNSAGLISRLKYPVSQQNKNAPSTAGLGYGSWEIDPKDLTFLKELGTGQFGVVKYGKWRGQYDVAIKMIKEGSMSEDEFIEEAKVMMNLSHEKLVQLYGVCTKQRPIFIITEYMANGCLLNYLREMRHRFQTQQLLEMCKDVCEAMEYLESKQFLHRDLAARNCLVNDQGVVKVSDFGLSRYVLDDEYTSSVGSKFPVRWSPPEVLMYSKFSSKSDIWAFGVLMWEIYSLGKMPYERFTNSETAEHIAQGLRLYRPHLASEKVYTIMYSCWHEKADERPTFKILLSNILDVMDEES
T1 sequence (P49761 whole entry, species assumed): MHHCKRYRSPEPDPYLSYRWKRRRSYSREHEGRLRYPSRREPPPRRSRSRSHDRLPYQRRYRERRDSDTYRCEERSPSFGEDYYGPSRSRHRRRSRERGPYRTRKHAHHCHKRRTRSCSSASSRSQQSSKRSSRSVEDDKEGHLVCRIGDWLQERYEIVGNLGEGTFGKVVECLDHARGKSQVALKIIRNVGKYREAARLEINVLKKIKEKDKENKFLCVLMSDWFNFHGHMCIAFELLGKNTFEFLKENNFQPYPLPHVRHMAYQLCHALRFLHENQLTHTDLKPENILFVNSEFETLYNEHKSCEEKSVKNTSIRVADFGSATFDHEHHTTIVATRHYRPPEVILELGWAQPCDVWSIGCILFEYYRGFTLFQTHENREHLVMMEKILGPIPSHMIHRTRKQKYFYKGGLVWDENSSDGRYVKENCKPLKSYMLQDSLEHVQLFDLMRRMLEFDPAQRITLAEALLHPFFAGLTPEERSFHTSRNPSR

Broadly, the inhibition is the relative decrease from the control value, in per cent. As usually defined, the pIC50 is −log10 of the IC50, conventionally taken in molar units. Take `C=CC(=O)N1CCCC(c2c(F)cc(C(N)=O)c3[nH]c4c(c23)CCCCC4)C1` (single isomer, unassigned) [Compound 5-6]: the inhibition at 1 µM was -29.3% against CLK3 and -26.4% against ALK. Further, the concentration at 1 h in data set [1] (brain, read-out: Mean [brain]) turned out to be 84 ng/mL; in data set [1] (setting [2]), 196 ng/mL. In addition, the Kp at 1 h in data set [1] came to 0.43. Moreover, the negative-log IC50 (pIC50) at BTK and in the data set on BTK in RAMOS B cells was above 8.00 in each case. For the same compound, the “selectivity in the large panel kinase screen” value (“selectivity” for short) in the data set with 288 kinases is “highly selective”.

Regarding `C=CC(=O)N1CCC[C@@H](c2c(F)cc(C(N)=O)c3[nH]c4c(c23)CC2(CC4)CC2)C1` [Compound 6-2, (S)-5-(1-acryloylpiperidin-3-yl)-6-fluoro-1,2,4,9-tetrahydrospiro[carbazole-3,1′-cyclopropane]-8-carboxamide], the inhibition at 1 µM against CLK3 is -0.1%; against ALK, 11.7%. Also, the concentration at 1 h in data set [1] (brain, read-out: Mean [brain]) was 108 ng/mL; in data set [1] (setting [2]), 395 ng/mL. Moreover, the Kp at 1 h in data set [1] was 0.28. Also, the pIC50 was above 8.00 against BTK and above 8.00 with BTK in RAMOS B cells (Homo sapiens, Ramos). Moreover, the “selectivity” value in the data set with 288 kinases was “highly selective”.

Regarding `C=CC(=O)N1CCC[C@@H](c2c(F)cc(C(N)=O)c3[nH]c4c(c23)CCC4)C1` [Compound 10-2, (S)-8-(1-acryloylpiperidin-3-yl)-7-fluoro-1,2,3,4-tetrahydrocyclo-penta[b]indole-5-carboxamide], the inhibition at 1 µM at CLK3 was -19.2%; on ALK, -2.7%. Further, the concentration at 1 h in data set [1] (brain, read-out: Mean [brain]) came to 116 ng/mL; in data set [1] (setting [2]), 421 ng/mL. In addition, the Kp at 1 h in data set [1] is 0.29. Besides, the negative logarithm of the IC50 (pIC50) at BTK was above 8.00; in the data set with BTK in RAMOS B cells (Homo sapiens, Ramos), above 8.00. In addition, the “selectivity” value in the data set with 288 kinases was “highly selective”.
